Results published in PubChem BioAssay (NCI).
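These data come from cells grown in 96-well plates and exposed to compound for 48 hours at five concentrations. Here, GI50 denotes the concentration required for 50% inhibition of growth. TGI: concentration producing complete growth inhibition.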

How the values were obtained:
Test in all cases: NCI-60 cell line screen, 48 h
IGROV1 ovarian = test system: IGROV1 ovarian
MDA-MB-435 = test system: MDA-MB-435
DU-145 prostate = test system: DU-145 prostate
M14 melanoma = test system: M14 melanoma
MOLT-4 leukemia = test system: MOLT-4 leukemia
COLO 205 colon = test system: COLO 205 colon
NCI/ADR-RES ovarian = test system: NCI/ADR-RES ovarian
K-562 leukemia = test system: K-562 leukemia
OVCAR-3 ovarian = test system: OVCAR-3 ovarian
EKVX NSCLC = test system: EKVX NSCLC
A549 NSCLC = test system: A549 NSCLC
NCI-H522 lung = test system: NCI-H522 lung
OVCAR-8 ovarian = test system: OVCAR-8 ovarian
SK-MEL-2 melanoma = test system: SK-MEL-2 melanoma
SN12C renal = test system: SN12C renal
OVCAR-5 ovarian = test system: OVCAR-5 ovarian
HCT-15 colon = test system: HCT-15 colon
LOX IMVI melanoma = test system: LOX IMVI melanoma
CAKI-1 renal = test system: CAKI-1 renal
ACHN renal = test system: ACHN renal
786-0 renal = test system: 786-0 renal
MCF7 breast = test system: MCF7 breast
HS 578T breast = test system: HS 578T breast
RPMI-8226 leukemia = test system: RPMI-8226 leukemia
TK-10 renal = test system: TK-10 renal
PC-3 prostate = test system: PC-3 prostate
MDA-N = test system: MDA-N
CCRF-CEM leukemia = test system: CCRF-CEM leukemia
HCT-116 colon = test system: HCT-116 colon
T-47D breast = test system: T-47D breast
UACC-62 melanoma = test system: UACC-62 melanoma
SK-MEL-5 melanoma = test system: SK-MEL-5 melanoma
SF-539 CNS = test system: SF-539 CNS
SW-620 colon = test system: SW-620 colon
NCI-H460 lung = test system: NCI-H460 lung
SR leukemia = test system: SR leukemia
SF-268 CNS = test system: SF-268 CNS
KM12 colon = test system: KM12 colon
SF-295 CNS = test system: SF-295 CNS
UO-31 renal = test system: UO-31 renal
HOP-62 NSCLC = test system: HOP-62 NSCLC
HT29 colon = test system: HT29 colon
SNB-19 CNS = test system: SNB-19 CNS
NCI-H226 lung = test system: NCI-H226 lung
NCI-H23 lung = test system: NCI-H23 lung
A498 renal = test system: A498 renal
HL-60(TB) leukemia = test system: HL-60(TB) leukemia
SNB-75 CNS = test system: SNB-75 CNS
UACC-257 melanoma = test system: UACC-257 melanoma
MDA-MB-231 breast = test system: MDA-MB-231 breast
BT-549 breast = test system: BT-549 breast
SK-OV-3 ovarian = test system: SK-OV-3 ovarian
HOP-92 NSCLC = test system: HOP-92 NSCLC
MALME-3M melanoma = test system: MALME-3M melanoma
U251 CNS = test system: U251 CNS
SK-MEL-28 melanoma = test system: SK-MEL-28 melanoma
HCC-2998 colon = test system: HCC-2998 colon
RXF 393 renal = test system: RXF 393 renal
OVCAR-4 ovarian = test system: OVCAR-4 ovarian

## COc1cccc(C2c3cc4c(cc3OC(N3CCCC3)C2C)OCO4)c1OC (centres undefined)
IGROV1 ovarian
  TGI: 16.6 µM
MDA-MB-435
  TGI: 14.3 µM
DU-145 prostate
  TGI: 11.5 µM
M14 melanoma
  TGI: 23.8 µM
MOLT-4 leukemia
  TGI: 10.7 µM
COLO 205 colon
  TGI: 19.4 µM
NCI/ADR-RES ovarian
  TGI: 15 µM
K-562 leukemia
  TGI: 30.5 µM
OVCAR-3 ovarian
  TGI: 6.7 µM
EKVX NSCLC
  TGI: 97.8 µM
A549 NSCLC
  TGI: 25.5 µM
NCI-H522 lung
  TGI: 25.5 µM
OVCAR-8 ovarian
  TGI: 39.8 µM
SK-MEL-2 melanoma
  TGI: 17.1 µM
SN12C renal
  TGI: 14.5 µM
OVCAR-5 ovarian
  TGI: 17.9 µM
HCT-15 colon
  TGI: 16.9 µM
LOX IMVI melanoma
  TGI: 4.07 µM
CAKI-1 renal
  TGI: 3.15 µM
ACHN renal
  TGI: 16.8 µM
786-0 renal
  TGI: 18.8 µM
MCF7 breast
  TGI: > 100 µM
HS 578T breast
  TGI: 11.1 µM
RPMI-8226 leukemia
  TGI: 13.2 µM
TK-10 renal
  TGI: > 100 µM
PC-3 prostate
  TGI: 27.3 µM
MDA-N
  TGI: 19.6 µM
CCRF-CEM leukemia
  TGI: 16.9 µM
HCT-116 colon
  TGI: 5.99 µM
T-47D breast
  TGI: 39.3 µM
UACC-62 melanoma
  TGI: 34.5 µM
SK-MEL-5 melanoma
  TGI: 12.5 µM
SF-539 CNS
  TGI: 16.2 µM
SW-620 colon
  TGI: 18.8 µM
NCI-H460 lung
  TGI: 12.5 µM
SR leukemia
  TGI: 15.2 µM
SF-268 CNS
  TGI: 21 µM
KM12 colon
  TGI: 15.1 µM
SF-295 CNS
  TGI: 12.4 µM
UO-31 renal
  TGI: 7.51 µM
HOP-62 NSCLC
  TGI: 26.7 µM
HT29 colon
  TGI: 11.3 µM
SNB-19 CNS
  TGI: 5.33 µM

## CC[n+]1ccc2c(c1)C(=O)c1nccc3c1c-2nc1ccccc13
NCI-H226 lung
  GI50: 1.13 µM
  TGI: 5.51 µM
IGROV1 ovarian
  GI50: 1.76 µM
  TGI: 10.9 µM
MDA-MB-435
  GI50: 2.34 µM
  TGI: 7.24 µM
DU-145 prostate
  GI50: 1.03 µM
  TGI: 4.31 µM
NCI-H23 lung
  GI50: 0.28 µM
  TGI: 2.64 µM
M14 melanoma
  GI50: 0.943 µM
  TGI: 4.38 µM
MOLT-4 leukemia
  GI50: 1.27 µM
  TGI: 7.31 µM
COLO 205 colon
  GI50: 1.13 µM
  TGI: 5.22 µM
NCI/ADR-RES ovarian
  GI50: > 27.7 µM
  TGI: > 33.3 µM
A498 renal
  GI50: 0.874 µM
  TGI: 6.13 µM
K-562 leukemia
  GI50: 3 µM
  TGI: 22.2 µM
HL-60(TB) leukemia
  GI50: 5.79 µM
  TGI: 16.9 µM
OVCAR-3 ovarian
  GI50: 0.783 µM
  TGI: 2.92 µM
SNB-75 CNS
  GI50: 0.678 µM
  TGI: 2.56 µM
UACC-257 melanoma
  GI50: 3.42 µM
  TGI: 9.06 µM
EKVX NSCLC
  GI50: 3.53 µM
  TGI: 8.92 µM
A549 NSCLC
  GI50: 0.958 µM
  TGI: 13.5 µM
NCI-H522 lung
  GI50: 0.538 µM
  TGI: 1.45 µM
MDA-MB-231 breast
  GI50: 2.17 µM
  TGI: 14 µM
OVCAR-8 ovarian
  GI50: 1.04 µM
  TGI: 6.47 µM
BT-549 breast
  GI50: 0.832 µM
  TGI: 3.12 µM
SK-OV-3 ovarian
  GI50: 0.799 µM
  TGI: 4.83 µM
SK-MEL-2 melanoma
  GI50: 1.35 µM
  TGI: 6.08 µM
SN12C renal
  GI50: 0.142 µM
  TGI: 0.66 µM
OVCAR-5 ovarian
  GI50: 6.88 µM
  TGI: 19.4 µM
HCT-15 colon
  GI50: 2.86 µM
  TGI: > 33.3 µM
LOX IMVI melanoma
  GI50: 2.19 µM
  TGI: 7.93 µM
CAKI-1 renal
  GI50: 2.1 µM
  TGI: > 33.3 µM
ACHN renal
  GI50: 1.13 µM
  TGI: > 15.5 µM
786-0 renal
  GI50: 0.768 µM
  TGI: 2.97 µM
HOP-92 NSCLC
  GI50: 1.45 µM
  TGI: 7.02 µM
MCF7 breast
  GI50: 0.587 µM
  TGI: 4.84 µM
HS 578T breast
  GI50: 0.955 µM
  TGI: > 10.1 µM
RPMI-8226 leukemia
  GI50: 6.49 µM
  TGI: 21.7 µM
TK-10 renal
  GI50: 4.77 µM
  TGI: 16.8 µM
PC-3 prostate
  GI50: 1.81 µM
  TGI: 16.2 µM
CCRF-CEM leukemia
  GI50: 1.39 µM
  TGI: 14.4 µM
HCT-116 colon
  GI50: 1.1 µM
  TGI: 7.18 µM
MALME-3M melanoma
  GI50: 0.762 µM
  TGI: 2.03 µM
U251 CNS
  GI50: 0.35 µM
  TGI: 1.28 µM
T-47D breast
  GI50: 2.2 µM
  TGI: 9.19 µM
UACC-62 melanoma
  GI50: 0.763 µM
  TGI: 2.52 µM
SK-MEL-5 melanoma
  GI50: 1.35 µM
  TGI: 5.54 µM
SK-MEL-28 melanoma
  GI50: 1.84 µM
  TGI: 7.64 µM
SF-539 CNS
  GI50: 0.489 µM
  TGI: 1.47 µM
HCC-2998 colon
  GI50: 1.05 µM
  TGI: 4.97 µM
SW-620 colon
  GI50: 1.1 µM
  TGI: 11.5 µM
NCI-H460 lung
  GI50: 0.12 µM
  TGI: 2.65 µM
RXF 393 renal
  GI50: 0.93 µM
  TGI: 3.68 µM
SR leukemia
  GI50: 0.339 µM
  TGI: 12.4 µM
SF-268 CNS
  GI50: 0.34 µM
  TGI: 3.63 µM
KM12 colon
  GI50: 2.41 µM
  TGI: 15.2 µM
SF-295 CNS
  GI50: 0.634 µM
  TGI: 3.76 µM
UO-31 renal
  GI50: 0.948 µM
  TGI: 8.42 µM
OVCAR-4 ovarian
  GI50: 0.941 µM
  TGI: 4.1 µM
HOP-62 NSCLC
  GI50: 0.0618 µM
  TGI: 1.19 µM
HT29 colon
  GI50: 4.15 µM
  TGI: 23.1 µM
SNB-19 CNS
  GI50: 0.212 µM
  TGI: 0.856 µM
